Reference: patent US6642398B2, “Mono-and disubstituted 3-propyl gamma-aminobutyric acids” (Warner-Lambert Company, priority 1999, dated 2003)
Counter-ions that a name gives are not always drawn. Like-named read-outs stand apart in the source and are kept apart here.

Experiments:
[1] = system: DBA/2 mice; assay: Anticonvulsant % Protect (DBA2 mouse model of anticonvulsant efficacy); assay type: in vivo; details: for responders at 30 mg/kg: Mus musculus
Method: All procedures were carried out in compliance with the NIH Guide for the Care and Use of Laboratory Animals under a protocol approved by the Parke-Davis Animal Use Committee. Male DBA/2 mice, 3 to 4 weeks old were obtained from Jackson Laboratories, Bar Harbour, Me. Immediately before anticonvulsant testing, mice were placed upon a wire mesh, 4 inches square, suspended from a steel rod. The square was slowly inverted through 180° and mice observed for 30 seconds. Any mouse falling from the wire mesh was scored as ataxic (Coughenour L. L., McLean J. R., Parker R. B., “A new device for the rapid measurement of impaired motor function in mice,” Pharm. Biochem. Behav., 1977;6(3):351-3). Mice were placed into an enclosed acrylic plastic chamber (21 cm height, approximately 30 cm diameter) with a high-frequency speaker (4 cm diameter) in the center of the top lid. An audio signal generator (Protek model B-810) was used to produce a continuous sinusoidal tone that was swept linearly in frequency between 8 kHz and 16 kHz once each 10 msec. The average sound pressure level (SPL) during stimulation was approximately 100 dB at the floor of the chamber. Mice were placed within the chamber and allowed to acclimatize for one minute. DBA/2 mice in the vehicle-treated group responded to the sound stimulus (applied until tonic extension occurred, or for a maximum of 60 sec) with a characteristic seizure sequence consisting of wild running followed by clonic seizures, and later by tonic extension, and finally by respiratory arrest and death in 80% or more of the mice. In vehicle-treated mice, the entire sequence of seizures to respiratory arrest lasts approximately 15 to 20 seconds. The incidence of all the seizure phases in the drug-treated and vehicle-treated mice was recorded, and the occurrence of tonic seizures were used for calculating anticonvulsant ED50 values by probit analysis (Litchfield J. T., Wilcoxon F. “A simplified method for evaluating dose-effect experiments,” J. Pharmacol., 1949;96:99-113). Mice were used only once for testing at each dose point. Groups of DBA/2 mice (n=5-10 per dose) were tested for sound-induced seizure responses 2 hours (previously determined time of peak effect) after given drug orally. All drugs in the present study were dissolved in distilled water and given by oral gavage in a volume of 10 mL/kg of body weight. Compounds that are insoluble will be suspended in 1% carboxymethocellulose. Doses are expressed as weight of the active drug moiety.

[2] = 30 mg/kg PO, 1 h, read-out: Anticonvulsant % Protect 1 h
[3] = 30 mg/kg PO, 2 h, read-out: Anticonvulsant % Protect 2 h

| Compound | responders at 30 mg/kg [1, 2] [%] | responders at 30 mg/kg [1, 3] [%] | also measured |
| --- | --- | --- | --- |
| CC(C)[C@@H](C)[C@@H](CN)CC(=O)O [(3S,4R)3-Aminomethyl 4,5-dimethyl-hexanoic acid] | 20 | 20 |  |
| CC(C)C[C@H](CN)CC(=O)O [Pregabalin, (S)-3-(Aminomethyl)-5-methylhexanoic acid, reference compound] |  |  | Anticonvulsant % Protect 2 h ([1]; 30 mg/kg PO, 2 h): 100% |
| CC[C@H](C)C[C@H](CN)CC(=O)O [(3S,5S)-3-Aminomethyl-5-methyl-heptanoic acid] | 0 | 0 |  |
| CC(C)[C@H](C)[C@H](CN)CC(=O)O [(3R,4S)-3-Aminomethyl-4,5-dimethyl-hexanoic acid] | 20 | 0 |  |
| CCCC(C(C)C)C(CN)CC(=O)O (stereo not drawn) (as salt: HCl) [3-aminomethyl-4-isopropyl-heptanoic acid, 3-Aminomethyl-4-isopropyl-heptanoic acid] |  |  | melting point: 160 to 170 °C |
| CC(C)[C@@H](C)[C@H](CN)CC(=O)O [(3R,4R)-3-Aminomethyl-4,5-dimethyl-hexanoic acid] | 100 | 100 |  |
| CC[C@@H](C)C[C@H](CN)CC(=O)O [(3S,5R)-3-Aminomethyl-5-methyl-heptanoic acid] | 80 |  |  |
| CCC(CC)CC(CN)CC(=O)O (stereo not drawn) |  |  | Anticonvulsant % Protect 2 hr ([1]; Table 1, 2 hr): 20% |
